Measurements published in patent US8304206B2, “Mass spectrometry assays for identifying compounds that activate deacetylases” (Sirtris Pharmaceuticals, Inc., priority 2005, dated 2012).
pEC50: −log10 of the molar value.

Molecular target: T1, SIRT1 (Homo sapiens, UniProt Q96EB6)
T1 sequence (Q96EB6 1-747): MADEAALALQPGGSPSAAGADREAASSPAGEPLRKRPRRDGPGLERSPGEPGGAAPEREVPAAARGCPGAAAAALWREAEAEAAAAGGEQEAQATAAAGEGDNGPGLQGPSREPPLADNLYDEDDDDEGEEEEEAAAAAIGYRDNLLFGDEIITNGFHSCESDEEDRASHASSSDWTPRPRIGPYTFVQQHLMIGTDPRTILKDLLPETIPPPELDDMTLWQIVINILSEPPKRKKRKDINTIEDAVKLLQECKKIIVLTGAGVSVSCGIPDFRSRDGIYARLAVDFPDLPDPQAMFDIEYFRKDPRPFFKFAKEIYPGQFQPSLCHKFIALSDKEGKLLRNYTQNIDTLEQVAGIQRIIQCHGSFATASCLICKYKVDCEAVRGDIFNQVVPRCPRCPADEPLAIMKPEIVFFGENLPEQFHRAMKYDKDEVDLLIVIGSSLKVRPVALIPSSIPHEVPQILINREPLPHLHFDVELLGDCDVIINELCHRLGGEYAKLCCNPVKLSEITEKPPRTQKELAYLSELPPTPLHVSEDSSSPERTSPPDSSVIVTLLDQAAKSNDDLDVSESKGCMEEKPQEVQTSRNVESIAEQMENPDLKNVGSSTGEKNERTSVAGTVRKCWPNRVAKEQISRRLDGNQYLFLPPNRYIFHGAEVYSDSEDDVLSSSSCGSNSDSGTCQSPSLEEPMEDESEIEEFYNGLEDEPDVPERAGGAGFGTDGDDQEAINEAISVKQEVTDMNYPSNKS
Experiment: SIRT1 mass spectrometry assay (screening for activation)
Assay type: biochemical
Conditions: for FOLD ACTIVATION MS: activation of SIRT1, mass spectrometry; for pEC50: activation of SIRT1, 0.5 μM peptide substrate (SEQ ID NO: 34), 120 μM NAD+, 10 nM SIRT1, 25 min, read-out: ED50 MS ASSAY

Row | SMILES | FOLD ACTIVATION MS | pEC50
1 | COc1ccc(C(=O)Nc2cccc(-c3nc4ncccc4o3)n2)c(OC)c1 [compound 69] | B (Fold Activation<250%) | –
2 | COc1cc(C(=O)Nc2cc(-c3nc4ncccc4o3)ccn2)cc(OC)c1OC [compound 75] | B (Fold Activation<250%) | –
3 | COc1ccc(C(=O)Nc2cc(-c3nc4ccccc4o3)ccn2)cc1OC [compound 77] | B (Fold Activation<250%) | –
4 | COc1ccc(C(=O)Nc2cccc(-c3csc(C)n3)c2)c(OC)c1 [compound 81] | B (Fold Activation<250%) | –
5 | COc1cc(SC)ccc1C(=O)Nc1cccc(-c2nncn2C)c1 [compound 83] | B (Fold Activation<250%) | –
6 | COc1ccc(C(=O)Nc2cccc(-c3csc(-c4ccccc4)n3)c2)cc1OC [compound 84] | B (Fold Activation<250%) | –
7 | Cc1nc(-c2cccc(Nc3nc4ccccc4o3)c2)cs1 [compound 92] | B (Fold Activation<250%) | –
8 | c1cc(Nc2nc3ccccc3o2)cc(-c2nc3ncccc3o2)c1 [compound 93] | B (Fold Activation<250%) | –
9 | COc1ccc(C(=O)Nc2ccccc2-c2nc3ncccc3o2)cc1OC [compound 96] | B (Fold Activation<250%) | > 4.30
10 | CN(C)c1cccc(C(=O)Nc2ccccc2-c2nc3ncccc3o2)c1 [compound 97] | B (Fold Activation<250%) | > 4.30
11 | O=C(Nc1cccc(-c2nc3ccncc3s2)c1)Nc1ccc2c(c1)OCO2 [compound 99] | A (Fold activation>250%) | > 4.30
12 | COc1ccc(NC(=O)c2cccc(-c3nc4ncccc4o3)c2)cc1OC [compound 101] | A (Fold activation>250%) | –
13 | COc1cc(NC(=O)c2cccc(-c3nc4ncccc4o3)c2)cc(OC)c1OC [compound 102] | A (Fold activation>250%) | –
14 | c1cc(Nc2nc3ccccc3s2)nc(-c2nc3ncccc3o2)c1 [compound 104] | B (Fold Activation<250%) | > 4.30
15 | c1cc(Nc2nc3ccccc3o2)nc(-c2nc3ncccc3o2)c1 [compound 105] | B (Fold Activation<250%) | > 4.30
16 | COc1cc(C(=O)Nc2ccccc2-c2nc3ncccc3o2)cc(OC)c1OC [compound 106] | B (Fold Activation<250%) | > 4.30
17 | COc1cc(OC)cc(C(=O)Nc2ccccc2-c2nc3ccccc3[nH]2)c1 [compound 141] | B (Fold Activation<250%) | > 4.30
18 | COc1ccc(C(=O)Nc2ccccc2-c2nc3ccccc3[nH]2)cc1OC [compound 142] | A (Fold activation>250%) | > 4.30
19 | COc1cc(C)ccc1C(=O)Nc1ccc(-c2nc3cccnc3[nH]2)cc1 [compound 149] | B (Fold Activation<250%) | > 4.30
20 | COc1ccc(C(=O)Nc2cc(C(=O)NCCN(C)C)cc(-c3nc4ncccc4o3)c2)cc1OC [compound 153] | B (Fold Activation<250%) | –
21 | CN(C)CCNC(=O)c1cc(NC(=O)c2cccc(N(C)C)c2)cc(-c2nc3ncccc3o2)c1 [compound 154] | A (Fold activation>250%) | –
22 | COc1ccc(C(=O)Nc2cc(C(=O)NCCN(C)C)cc(-c3nc4ncccc4o3)c2)c(OC)c1 [compound 155] | B (Fold Activation<250%) | –
23 | CN(C)Cc1cc(NC(=O)c2cccc(N(C)C)c2)cc(-c2nc3ncccc3o2)c1 [compound 157] | B (Fold Activation<250%) | –
24 | COc1ccc(C(=O)Nc2cc(CN3CCNCC3)cc(-c3nc4ncccc4o3)c2)cc1OC [compound 159] | B (Fold Activation<250%) | –
25 | CN(C)c1cccc(C(=O)Nc2cc(CN3CCNCC3)cc(-c3nc4ncccc4o3)c2)c1 [compound 160] | A (Fold activation>250%) | –
26 | COc1cc(C(=O)Nc2ccccc2-c2nc3ccncc3s2)cc(OC)c1OC [compound 163] | B (Fold Activation<250%) | > 4.30
27 | Cc1ccc2oc(-c3cccc(NC(=O)c4cccc(N(C)C)c4)c3)nc2n1 [compound 167] | B (Fold Activation<250%) | –

Other lines, results leading:

Row | FOLD ACTIVATION MS | pEC50 | SMILES
28 | B (Fold Activation<250%) | – | CN(C)c1ccc(C(=O)Nc2cccc(-c3nc4ncccc4o3)n2)cc1 [compound 70]
29 | B (Fold Activation<250%) | – | O=C(Nc1ccc2c(c1)OCO2)Nc1cccc(-c2nc3ncccc3o2)n1 [compound 71]
30 | B (Fold Activation<250%) | – | CN(C)c1cccc(C(=O)Nc2cc(-c3nc4ncccc4o3)ccn2)c1 [compound 76]
31 | B (Fold Activation<250%) | – | COc1ccc(C(=O)Nc2cccc(-c3csc(C)n3)c2)cc1OC [compound 80]
32 | B (Fold Activation<250%) | > 4.30 | c1cc(Nc2nc3ccccc3s2)cc(-c2nc3ncccc3o2)c1 [compound 95]
33 | B (Fold Activation<250%) | – | COc1ccc(NC(=O)c2cccc(-c3nc4ncccc4o3)c2)c(OC)c1 [compound 100]
34 | B (Fold Activation<250%) | > 4.30 | COc1ccc(C(=O)Nc2sccc2-c2nc3ccccc3s2)cc1OC [compound 145]
35 | B (Fold Activation<250%) | > 4.30 | COc1cc(OC)cc(C(=O)Nc2sccc2-c2nc3ccccc3s2)c1 [compound 146]
36 | B (Fold Activation<250%) | > 4.30 | COc1ccc(C(=O)Nc2ccc(-c3nc4cccnc4[nH]3)cc2)cc1OC [compound 150]
37 | B (Fold Activation<250%) | – | COc1ccc(C(=O)Nc2cc(CN(C)C)cc(-c3nc4ncccc4o3)c2)cc1OC [compound 156]
38 | B (Fold Activation<250%) | – | COc1ccc(C(=O)Nc2cc(CN(C)C)cc(-c3nc4ncccc4o3)c2)c(OC)c1 [compound 158]
39 | A (Fold activation>250%) | – | COc1ccc(C(=O)Nc2cc(CN3CCNCC3)cc(-c3nc4ncccc4o3)c2)c(OC)c1 [compound 161]
40 | B (Fold Activation<250%) | > 4.30 | COc1ccc(C(=O)Nc2ccccc2-c2nc3ccncc3s2)cc1OC [compound 162]
41 | B (Fold Activation<250%) | – | COc1ccc(C(=O)Nc2cc(C(=O)N3CCNCC3)cc(-c3nc4ncccc4o3)c2)cc1OC [compound 164]
42 | A (Fold activation>250%) | – | CN(C)Cc1ccc2oc(-c3cccc(NC(=O)c4cccc(N(C)C)c4)c3)nc2n1 [compound 165]
43 | B (Fold Activation<250%) | – | CN(C)c1cccc(C(=O)Nc2cccc(-c3nc4nc(CN5CCNCC5)ccc4o3)c2)c1 [compound 166]
44 | B (Fold Activation<250%) | > 4.30 | CN(C(=O)Nc1ccccc1-c1nc2ccccc2[nH]1)c1ccccc1 [compound 169]
45 | A (Fold activation>250%) | – | COc1cc(C(=O)Nc2cc(CN(C)C)cc(-c3nc4ccncc4s3)c2)cc(OC)c1OC [compound 174]
46 | B (Fold Activation<250%) | – | COc1ccc(C(=O)Nc2ccccc2-n2cccc2)cc1OC [compound 175]
47 | B (Fold Activation<250%) | – | COc1cc(C(=O)Nc2ccccc2-n2cccn2)cc(OC)c1OC [compound 176]
48 | B (Fold Activation<250%) | – | COc1ccc(C(=O)Nc2ccccc2-n2cccn2)cc1OC [compound 177]
49 | A (Fold activation>250%) | – | COc1ccc(C(=O)Nc2ccccc2-c2cn3cc(CN(C)C)sc3n2)cc1OC [compound 178]
